Values of other authors, collected in article PMC4646457 (PLoS ONE, 2015).

Settings: refractory advanced or metastatic breast cancer; ref ZM2006/00137/00 (EGF100151); cited from earlier work

CCCCCOC(=O)Nc1nc(=O)n([C@@H]2O[C@H](C)[C@@H](O)[C@H]2O)cc1F [capecitabine]
median time to progression: 18.6 weeks
